Experimental data taken from ChEMBL document CHEMBL3352807, “Design, synthesis and anti-mycobacterial activity of 1,2,3,5-tetrasubstituted pyrrolyl-N-acetic acid derivatives” (Eur J Med Chem, 2014).
≈ marks a conversion by molar mass, not a printed value.

How the values were obtained:
[1] = test system: Mycobacterium tuberculosis; assay: Antimycobacterial activity against Mycobacterium tuberculosis H37Rv ATCC 27294 after 28 days by agar dilution method; format: functional; settings: H37Rv ATCC 27294, 672 h
[2] = test system: Pseudomonas aeruginosa; assay: Antibacterial activity against Pseudomonas aeruginosa; format: functional
[3] = Cytotoxicity against HEK293T cells at 50 uM after 72 hrs by MTT assay; format: cell-based, HEK-293T; settings: human
[4] = test system: HEK-293T; assay: Cytotoxicity against HEK293T cells after 72 hrs by MTT assay; format: cell-based; settings: Homo sapiens
[5] = Selectivity index, ratio of IC50 for HEK293T cells to MIC for Mycobacterium tuberculosis H37Rv ATCC 27294; format: toxicity, cell-based, HEK-293T; settings: human, read-out: Selectivity Index
[6] = test system: Mycolicibacterium smegmatis; assay: Antimycobacterial activity against Mycobacterium smegmatis assessed as growth inhibition after 32 hrs by spectrophotometry; format: functional

| SMILES | MIC [1] [µM] | MIC [2] [µM] | inhibition at 72 h, 50 µM [3] [%] | IC50 [4] [µM] | selectivity ratio [5] | GI50 [6] [µM] |
| --- | --- | --- | --- | --- | --- | --- |
| O=C(O)Cn1c(-c2ccccc2)cc(-c2ccccc2)c1-c1ccco1 | 18.2 (≈ 6.26 µg/mL) | 54.7 (≈ 18.8 µg/mL) | 114 | < 50 | 2.74 | – |
| CC(C)C(C(=O)O)n1c(-c2ccccc2)cc(-c2ccccc2)c1-c1ccco1 (stereo not given) | 130 (≈ 50.1 µg/mL) | 97.4 (≈ 37.5 µg/mL) | – | – | – | – |
| CC(C)CC(C(=O)O)n1c(-c2ccccc2)cc(-c2ccccc2)c1-c1ccco1 (stereo not given) | 7.83 (≈ 3.13 µg/mL) | 376 (≈ 150 µg/mL) | 82.4 | < 50 | 6.38 | – |
| O=C(O)Cn1c(-c2ccccc2)cc(-c2ccco2)c1-c1ccco1 | 75.1 (≈ 25 µg/mL) | 113 (≈ 37.5 µg/mL) | – | – | – | – |
| CC(C)C(C(=O)O)n1c(-c2ccccc2)cc(-c2ccco2)c1-c1ccco1 (stereo not given) | 66.7 (≈ 25 µg/mL) | 400 (≈ 150 µg/mL) | – | – | – | – |
| O=C(O)Cn1c(-c2cccc3ccccc23)cc(-c2ccccc2)c1-c1ccco1 | 31.8 (≈ 12.5 µg/mL) | 47.7 (≈ 18.8 µg/mL) | 79.5 | < 50 | 1.57 | – |
| O=C(O)Cn1c(-c2ccccc2)cc(-c2cccc3ccccc23)c1-c1ccco1 | 7.95 (≈ 3.13 µg/mL) | 13.3 (≈ 5.22 µg/mL) | 32 | < 50 | > 6.29 | – |
| O=C(O)Cn1c(-c2ccccc2)cc(-c2ccccc2)c1-c1ccccc1 | 34.1 (≈ 12 µg/mL) | 47.7 (≈ 16.9 µg/mL) | 97 | < 50 | 1.47 | – |
| Cc1ccc(-c2c(-c3ccccc3)cc(-c3ccccc3)n2CC(=O)O)cc1 | 58 (≈ 21.3 µg/mL) | 409 (≈ 150 µg/mL) | 78.2 | < 50 | 0.86 | – |
| O=C(O)Cn1c(-c2ccccc2)cc(-c2ccccc2)c1-c1ccc(Br)cc1 | 32.3 (≈ 14 µg/mL) | 348 (≈ 150 µg/mL) | – | – | – | – |
| O=C(O)Cn1c(-c2ccccc2)cc(-c2ccccc2)c1-c1ccc(Cl)cc1 | 64.6 (≈ 25.1 µg/mL) | 388 (≈ 150 µg/mL) | 37.4 | < 50 | 1.55 | – |
| O=C(Cn1c(-c2ccccc2)cc(-c2ccccc2)c1-c1ccco1)Nc1nc2ccccc2s1 | 13.2 (≈ 6.26 µg/mL) | 316 (≈ 150 µg/mL) | 89.8 | < 50 | 3.8 | 44.6 |
| CCc1nnc(NC(=O)Cn2c(-c3ccccc3)cc(-c3ccccc3)c2-c2ccco2)s1 | 27.6 (≈ 12.5 µg/mL) | 331 (≈ 151 µg/mL) | 81 | < 50 | 1.81 | 23.3 |
| O=C(Cn1c(-c2ccccc2)cc(-c2ccccc2)c1-c1ccco1)NCc1ccccc1 | 7.23 (≈ 3.13 µg/mL) | 347 (≈ 150 µg/mL) | 72.4 | < 50 | 6.91 | 52.4 |
| O=C(Cn1c(-c2ccccc2)cc(-c2ccccc2)c1-c1ccco1)Nc1ccccn1 | 29.8 (≈ 12.5 µg/mL) | 358 (≈ 150 µg/mL) | 69.3 | < 50 | 1.68 | 24.8 |
| O=C(Cn1c(-c2ccccc2)cc(-c2ccccc2)c1-c1ccco1)NCCc1c[nH]c2ccccc12 | 6.44 (≈ 3.13 µg/mL) | 77.3 (≈ 37.5 µg/mL) | 62.5 | < 50 | 7.76 | 26.8 |
| O=C(Cn1c(-c2ccccc2)cc(-c2ccccc2)c1-c1ccccc1)Nc1nc2ccccc2s1 | 6.44 (≈ 3.13 µg/mL) | 309 (≈ 150 µg/mL) | 55 | < 50 | 0.76 | 28.9 |

| SMILES | MIC [1] [µM] | MIC [2] [µM] | inhibition at 72 h, 50 µM [3] [%] | IC50 [4] [µM] | selectivity ratio [5] | GI50 [6] [µM] |
| --- | --- | --- | --- | --- | --- | --- |
| CCc1nnc(NC(=O)Cn2c(-c3ccccc3)cc(-c3ccccc3)c2-c2ccccc2)s1 | 13.5 (≈ 6.26 µg/mL) | 323 (≈ 150 µg/mL) | 49.3 | < 50 | 3.71 | 20.4 |
| O=C(Cn1c(-c2ccccc2)cc(-c2ccccc2)c1-c1ccccc1)Nc1ccccn1 | 7.28 (≈ 3.13 µg/mL) | 175 (≈ 75.1 µg/mL) | 62.9 | < 50 | 6.86 | 26.7 |
| O=C(Cn1c(-c2ccccc2)cc(-c2ccco2)c1-c1ccco1)Nc1nc2ccccc2s1 | 29.5 (≈ 13.7 µg/mL) | 354 (≈ 165 µg/mL) | 65.1 | < 50 | 1.7 | 14 |
| CCc1nnc(NC(=O)Cn2c(-c3ccccc3)cc(-c3ccco3)c2-c2ccco2)s1 | 14.1 (≈ 6.26 µg/mL) | 338 (≈ 150 µg/mL) | 90.2 | < 50 | 3.55 | 15.2 |
| O=C(Cn1c(-c2ccccc2)cc(-c2ccccc2)c1-c1ccc(Br)cc1)Nc1nc2ccccc2s1 | 11.1 (≈ 6.25 µg/mL) | 266 (≈ 150 µg/mL) | 86.7 | < 50 | 4.51 | 48.3 |
| CCc1nnc(NC(=O)Cn2c(-c3ccccc3)cc(-c3ccccc3)c2-c2ccc(Br)cc2)s1 | 46.1 (≈ 25.1 µg/mL) | 277 (≈ 150 µg/mL) | – | – | – | 30.6 |
| O=C(Cn1c(-c2ccccc2)cc(-c2ccccc2)c1-c1ccc(Br)cc1)Nc1ccccn1 | 6.15 (≈ 3.13 µg/mL) | 295 (≈ 150 µg/mL) | 75 | < 50 | 8.13 | 45.9 |
| O=C(Cn1c(-c2ccc3ccccc3c2)cc(-c2ccccc2)c1-c1ccco1)Nc1nc2ccccc2s1 | 2.97 (≈ 1.56 µg/mL) | 286 (≈ 150 µg/mL) | 38.3 | < 50 | > 16.8 | – |
| CCc1nnc(NC(=O)Cn2c(-c3ccc4ccccc4c3)cc(-c3ccccc3)c2-c2ccco2)s1 | 24.8 (≈ 12.5 µg/mL) | 298 (≈ 150 µg/mL) | 83.6 | < 50 | 2.02 | 73.9 |
| O=C(Cn1c(-c2ccc3ccccc3c2)cc(-c2ccccc2)c1-c1ccco1)NCc1ccccc1 | 51.9 (≈ 25 µg/mL) | 311 (≈ 150 µg/mL) | – | – | – | – |
| O=C(Cn1c(-c2ccccc2)cc(-c2cccc3ccccc23)c1-c1ccco1)Nc1nc2ccccc2s1 | 2.97 (≈ 1.56 µg/mL) | 286 (≈ 150 µg/mL) | 68.8 | < 50 | 16.8 | 61.4 |
| CCc1nnc(NC(=O)Cn2c(-c3ccccc3)cc(-c3cccc4ccccc34)c2-c2ccco2)s1 | 3.1 (≈ 1.56 µg/mL) | 298 (≈ 150 µg/mL) | 59.7 | < 50 | 16.1 | 66.8 |
| CC[C@@H](CO)NCCN[C@@H](CC)CO [ETHAMBUTOL] | 27.5 (≈ 5.62 µg/mL) | – | – | – | – | – |
| NNC(=O)c1ccncc1 [ISONIAZID] | 5.25 (≈ 0.72 µg/mL) | – | – | – | – | 41.6 |
| CC1(C)S[C@@H]2[C@H](NC(=O)Cc3ccccc3)C(=O)N2[C@H]1C(=O)O [PENICILLIN G] | – | 37.4 (≈ 12.5 µg/mL) | – | – | – | – |
| CO[C@H]1/C=C/O[C@@]2(C)Oc3c(C)c(O)c4c(O)c(c(/C=N/N5CCN(C)CC5)c(O)c4c3C2=O)NC(=O)/C(C)=C\C=C\[C@H](C)[C@H](O)[C@@H](C)[C@@H](O)[C@@H](C)[C@H](OC(C)=O)[C@@H]1C [RIFAMPIN] | 0.29 (≈ 0.239 µg/mL) | – | – | – | – | 1.22 |
| CN[C@@H]1[C@H](O[C@H]2[C@H](O[C@H]3[C@H](O)[C@@H](O)[C@H](N=C(N)N)[C@@H](O)[C@@H]3N=C(N)N)O[C@@H](C)[C@]2(O)C=O)O[C@@H](CO)[C@H](O)[C@H]1O [STREPTOMYCIN] | – | 2.68 (≈ 1.56 µg/mL) | – | – | – | – |
